{"source": "patent US8722868B2", "about": "“Glycosyltransferase, novel glycosyltransferase gene, and novel sugar donor compound” (National University Corporation Tokyo University of …, priority 2009, dated 2014)", "biological_target": "T1, carnation-derived glycosyltransferase (SEQ ID NO: 1), recombinant crude enzyme liquid (Dianthus caryophyllus, UniProt E3W9M2)", "T1 construct": "the enzyme comprising 502 amino acid residues was translated, followed by amino acid removal via processing; added initiator methionine (one Met placed before the processed N-terminus SEFDRL...) (N); made in house; host or cells: Escherichia coli JM109 (crude lysate supernatant)", "T1 sequence (E3W9M2 31-502)": "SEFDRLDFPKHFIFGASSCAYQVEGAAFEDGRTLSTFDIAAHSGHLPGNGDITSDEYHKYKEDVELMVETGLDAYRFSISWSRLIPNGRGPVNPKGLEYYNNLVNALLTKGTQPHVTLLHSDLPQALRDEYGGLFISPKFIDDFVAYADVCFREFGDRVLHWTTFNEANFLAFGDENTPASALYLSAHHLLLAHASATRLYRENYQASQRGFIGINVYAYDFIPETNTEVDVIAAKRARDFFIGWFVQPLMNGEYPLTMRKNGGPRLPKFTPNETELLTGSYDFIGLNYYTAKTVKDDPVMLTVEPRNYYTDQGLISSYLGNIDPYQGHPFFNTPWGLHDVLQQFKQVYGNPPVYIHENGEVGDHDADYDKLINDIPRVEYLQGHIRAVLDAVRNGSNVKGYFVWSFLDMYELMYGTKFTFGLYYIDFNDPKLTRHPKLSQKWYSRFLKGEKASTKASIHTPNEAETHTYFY", "test": "Glycosyl transfer reaction with carnation-derived glycosyltransferase gene expressed in Escherichia coli", "type": "biochemical", "conditions": "E. coli crude enzyme liquid, cyanidin-3-O-β-glucoside, pH 5.6, 30° C., 3 hours", "description": "The PCR product was ligated to a pTrcHis2-TOPO vector (Invitrogen) using a pTrcHis2-TOPO TA expression Kit (Invitrogen), followed by transformation of the Escherichia coli JM109 strain. DNA was extracted from the transformed Escherichia coli and the DNA nucleotide sequence was analyzed in the above manner. Accordingly, the direction of cDNA introduction and the nonoccurrence of a PCR-induced nucleotide substitution were confirmed.\nThe transformed Escherichia coli was seeded on an LB medium containing […] ampicillin (5 ml), followed by shake culture at 30° C. for 4 hours. Then, IPTG was added thereto to result in 1 mM, followed by shake culture at 16° C. for 2 hours. The cultured Escherichia coli was harvested via centrifugation at 1,800×g. The medium was removed therefrom. A 0.1 M citric acid buffer (pH 5.6) (150 μl) was added thereto, followed by sufficient mixing. The resultant was repeatedly subjected to ultrasonication on ice 3 times for 10 seconds (output: 4; duty: 70) using a ultrasonic disintegrator (UD-201, TOMY SEIKO Co., Ltd., Tokyo, Japan), followed by centrifugation at 20,000×g. The supernatant was transferred to a new centrifuge tube and designated as a crude enzyme liquid. […]"}
{"smiles": "COc1cc(C(=O)OC2OC(CO)C(O)C(O)C2O)ccc1O", "note": "(stereo not shown)", "values": [{"measurement": "Sugar donor function with recombinant carnation-derived glycosyltransferase (reaction product by HPLC)", "value": "Generation of cyanidin 3,5-O-β-diglucoside was confirmed"}]}
